{
  "source": "the supplement of paper PMC10307832",
  "test_in_all_cases": "relative viability (nuclei count vs DMSO), 5 days (fraction); higher = more cells survive",
  "key": {"AZD8055": {"compound": "COc1ccc(-c2ccc3c(N4CCOC[C@@H]4C)nc(N4CCOC[C@@H]4C)nc3n2)cc1CO [AZD8055]", "outline": "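Hoechst staining, done together with fixation and permeabilisation, marked nuclei for 4× imaging and MetaXpress counting. This followed 5 days without medium change after lung cancer cell lines, kept overnight at 37 °C in 1536-well plates, were pinned with five library-drug doses (not always all listed) spaced by √10 on vehicle-anchored plates. Viability is the ratio of treated-well to vehicle-well nuclei, expressed as a median across plates. Plates passed only at control CV below 25% with at least one doubling.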"}, "AZD8055 + Bortezomib": {"compound": "COc1ccc(-c2ccc3c(N4CCOC[C@@H]4C)nc(N4CCOC[C@@H]4C)nc3n2)cc1CO [AZD8055] + CC(C)C[C@H](NC(=O)[C@H](Cc1ccccc1)NC(=O)c1cnccn1)B(O)O [Bortezomib] (partner 0.002 µM)", "outline": "(§1)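 Lung cancer cell lines were seeded in 1536-well plates and dosed by pin tool the next day, with either a single drug or a fixed anchor-drug dose combined with five library-drug doses (not always all listed) spaced in √10 steps. Five days later, one step fixed the cells and stained their nuclei (final 0.05% Triton X-100, 1% formaldehyde, 1 ug/ml Hoechst), and nuclei were counted on 4× images. Relative viability is the nuclei count in treated wells divided by the count in vehicle wells, and each value is the median of duplicate plates.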"}, "AZD8055 + Navitoclax": {"compound": "COc1ccc(-c2ccc3c(N4CCOC[C@@H]4C)nc(N4CCOC[C@@H]4C)nc3n2)cc1CO [AZD8055] + CC1(C)CCC(c2ccc(Cl)cc2)=C(CN2CCN(c3ccc(C(=O)NS(=O)(=O)c4ccc(N[C@H](CCN5CCOCC5)CSc5ccccc5)c(S(=O)(=O)C(F)(F)F)c4)cc3)CC2)C1 [Navitoclax] (partner 0.5 µM)", "outline": "as §1"}, "AZD8055 + Foretinib": {"compound": "COc1ccc(-c2ccc3c(N4CCOC[C@@H]4C)nc(N4CCOC[C@@H]4C)nc3n2)cc1CO [AZD8055] + COc1cc2c(Oc3ccc(NC(=O)C4(C(=O)Nc5ccc(F)cc5)CC4)cc3F)ccnc2cc1OCCCN1CCOCC1 [Foretinib] (partner 0.25 µM)", "outline": "as §1"}, "AZD8055 + Lapatinib": {"compound": "COc1ccc(-c2ccc3c(N4CCOC[C@@H]4C)nc(N4CCOC[C@@H]4C)nc3n2)cc1CO [AZD8055] + CS(=O)(=O)CCNCc1ccc(-c2ccc3ncnc(Nc4ccc(OCc5cccc(F)c5)c(Cl)c4)c3c2)o1 [Lapatinib] (partner 2 µM)", "outline": "as §1"}, "AZD8055 + Pictilisib": {"compound": "COc1ccc(-c2ccc3c(N4CCOC[C@@H]4C)nc(N4CCOC[C@@H]4C)nc3n2)cc1CO [AZD8055] + CS(=O)(=O)N1CCN(Cc2cc3nc(-c4cccc5[nH]ncc45)nc(N4CCOCC4)c3s2)CC1 [Pictilisib] (partner 1 µM)", "outline": "as §1"}, "AZD8055 + Crizotinib": {"compound": "COc1ccc(-c2ccc3c(N4CCOC[C@@H]4C)nc(N4CCOC[C@@H]4C)nc3n2)cc1CO [AZD8055] + C[C@@H](Oc1cc(-c2cnn(C3CCNCC3)c2)cnc1N)c1c(Cl)ccc(F)c1Cl [Crizotinib] (partner 1 µM)", "outline": "as §1"}, "AZD8055 + Linsitinib": {"compound": "COc1ccc(-c2ccc3c(N4CCOC[C@@H]4C)nc(N4CCOC[C@@H]4C)nc3n2)cc1CO [AZD8055] + C[C@]1(O)C[C@@H](c2nc(-c3ccc4ccc(-c5ccccc5)nc4c3)c3c(N)nccn32)C1 [Linsitinib] (partner 1 µM)", "outline": "as §1"}, "AZD8055 + Alpelisib": {"compound": "COc1ccc(-c2ccc3c(N4CCOC[C@@H]4C)nc(N4CCOC[C@@H]4C)nc3n2)cc1CO [AZD8055] + Cc1nc(NC(=O)N2CCC[C@H]2C(N)=O)sc1-c1ccnc(C(C)(C)C(F)(F)F)c1 [Alpelisib] (partner 2 µM)", "outline": "as §1"}, "AZD8055 + Olaparib": {"compound": "COc1ccc(-c2ccc3c(N4CCOC[C@@H]4C)nc(N4CCOC[C@@H]4C)nc3n2)cc1CO [AZD8055] + O=C(c1cc(Cc2n[nH]c(=O)c3ccccc23)ccc1F)N1CCN(C(=O)C2CC2)CC1 [Olaparib] (partner 8 µM)", "outline": "as §1"}},
  "data": [
    {"cell line": "NCI-H1299", "values": [
      {"measurement": "relative viability", "setting": "AZD8055; 0.01 µM", "value": 1.04},
      {"measurement": "relative viability", "setting": "AZD8055; 0.03162 µM", "value": 1.06},
      {"measurement": "relative viability", "setting": "AZD8055; 0.1 µM", "value": 1.04},
      {"measurement": "relative viability", "setting": "AZD8055; 0.3162 µM", "value": 0.807},
      {"measurement": "relative viability", "setting": "AZD8055; 1 µM", "value": 0.415},
      {"measurement": "relative viability", "setting": "AZD8055 + Bortezomib; first compound 0.01 µM", "value": 1.08},
      {"measurement": "relative viability", "setting": "AZD8055 + Bortezomib; first compound 0.03162 µM", "value": 1.05},
      {"measurement": "relative viability", "setting": "AZD8055 + Bortezomib; first compound 0.1 µM", "value": 1.11},
      {"measurement": "relative viability", "setting": "AZD8055 + Bortezomib; first compound 0.3162 µM", "value": 0.931},
      {"measurement": "relative viability", "setting": "AZD8055 + Bortezomib; first compound 1 µM", "value": 0.576},
      {"measurement": "relative viability", "setting": "AZD8055 + Navitoclax; first compound 0.01 µM", "value": 1.05},
      {"measurement": "relative viability", "setting": "AZD8055 + Navitoclax; first compound 0.03162 µM", "value": 1.08},
      {"measurement": "relative viability", "setting": "AZD8055 + Navitoclax; first compound 0.1 µM", "value": 1.02},
      {"measurement": "relative viability", "setting": "AZD8055 + Navitoclax; first compound 0.3162 µM", "value": 0.939},
      {"measurement": "relative viability", "setting": "AZD8055 + Navitoclax; first compound 1 µM", "value": 0.67},
      {"measurement": "relative viability", "setting": "AZD8055 + Foretinib; first compound 0.01 µM", "value": 1.19},
      {"measurement": "relative viability", "setting": "AZD8055 + Foretinib; first compound 0.03162 µM", "value": 1.18},
      {"measurement": "relative viability", "setting": "AZD8055 + Foretinib; first compound 0.1 µM", "value": 1.14},
      {"measurement": "relative viability", "setting": "AZD8055 + Foretinib; first compound 0.3162 µM", "value": 0.863},
      {"measurement": "relative viability", "setting": "AZD8055 + Foretinib; first compound 1 µM", "value": 0.528},
      {"measurement": "relative viability", "setting": "AZD8055 + Lapatinib; first compound 0.01 µM", "value": 0.974},
      {"measurement": "relative viability", "setting": "AZD8055 + Lapatinib; first compound 0.03162 µM", "value": 1.07},
      {"measurement": "relative viability", "setting": "AZD8055 + Lapatinib; first compound 0.1 µM", "value": 0.98},
      {"measurement": "relative viability", "setting": "AZD8055 + Lapatinib; first compound 0.3162 µM", "value": 0.758},
      {"measurement": "relative viability", "setting": "AZD8055 + Lapatinib; first compound 1 µM", "value": 0.439},
      {"measurement": "relative viability", "setting": "AZD8055 + Pictilisib; first compound 0.01 µM", "value": 0.635},
      {"measurement": "relative viability", "setting": "AZD8055 + Pictilisib; first compound 0.03162 µM", "value": 0.572},
      {"measurement": "relative viability", "setting": "AZD8055 + Pictilisib; first compound 0.1 µM", "value": 0.363},
      {"measurement": "relative viability", "setting": "AZD8055 + Pictilisib; first compound 0.3162 µM", "value": 0.24},
      {"measurement": "relative viability", "setting": "AZD8055 + Pictilisib; first compound 1 µM", "value": 0.233},
      {"measurement": "relative viability", "setting": "AZD8055 + Crizotinib; first compound 0.01 µM", "value": 0.998},
      {"measurement": "relative viability", "setting": "AZD8055 + Crizotinib; first compound 0.03162 µM", "value": 0.995},
      {"measurement": "relative viability", "setting": "AZD8055 + Crizotinib; first compound 0.1 µM", "value": 0.968},
      {"measurement": "relative viability", "setting": "AZD8055 + Crizotinib; first compound 0.3162 µM", "value": 0.891},
      {"measurement": "relative viability", "setting": "AZD8055 + Crizotinib; first compound 1 µM", "value": 0.51},
      {"measurement": "relative viability", "setting": "AZD8055 + Linsitinib; first compound 0.01 µM", "value": 1.08},
      {"measurement": "relative viability", "setting": "AZD8055 + Linsitinib; first compound 0.03162 µM", "value": 0.948},
      {"measurement": "relative viability", "setting": "AZD8055 + Linsitinib; first compound 0.1 µM", "value": 0.798},
      {"measurement": "relative viability", "setting": "AZD8055 + Linsitinib; first compound 0.3162 µM", "value": 0.436},
      {"measurement": "relative viability", "setting": "AZD8055 + Linsitinib; first compound 1 µM", "value": 0.295},
      {"measurement": "relative viability", "setting": "AZD8055 + Alpelisib; first compound 0.01 µM", "value": 1.17},
      {"measurement": "relative viability", "setting": "AZD8055 + Alpelisib; first compound 0.03162 µM", "value": 1.04},
      {"measurement": "relative viability", "setting": "AZD8055 + Alpelisib; first compound 0.1 µM", "value": 1.06},
      {"measurement": "relative viability", "setting": "AZD8055 + Alpelisib; first compound 0.3162 µM", "value": 0.628},
      {"measurement": "relative viability", "setting": "AZD8055 + Alpelisib; first compound 1 µM", "value": 0.468},
      {"measurement": "relative viability", "setting": "AZD8055 + Olaparib; first compound 0.01 µM", "value": 1.06},
      {"measurement": "relative viability", "setting": "AZD8055 + Olaparib; first compound 0.03162 µM", "value": 1.03},
      {"measurement": "relative viability", "setting": "AZD8055 + Olaparib; first compound 0.1 µM", "value": 0.889},
      {"measurement": "relative viability", "setting": "AZD8055 + Olaparib; first compound 0.3162 µM", "value": 0.574},
      {"measurement": "relative viability", "setting": "AZD8055 + Olaparib; first compound 1 µM", "value": 0.353}
    ]}
  ]
}
